Laboratory results reported in PubChem BioAssay AID248 (DTP/NCI, 2004).
“And” between values parts separate entries of the source, which are not always exact repeats. Equal entries are not always repeated. Toxic doses and inconclusive results are not listed. Rule as the data show it: active = T/C of 150% or more; inactive = T/C below 125%.

Tested on: L1210 leukemia ip in BDF1 mice, survival T/C
Assay: NCI In Vivo Anticancer Drug Screen. Data for tumor model L1210 Leukemia (intraperitoneal) in B6D2F1 (BDF1) mice
Conditions: endpoint: mean survival time, higher = longer survival
How it was run: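 Transplantable tumor model; survival measured in treated vs vehicle control mice. Value = treated/control.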

[1] = dose: 100.0 mg/kg/injection, schedule: Q01DX001 (ip), vehicle: saline
[2] = dose: 200.0 mg/kg/injection, schedule: Q01DX001 (ip), vehicle: saline
[3] = dose: 400.0 mg/kg/injection, schedule: Q01DX001 (ip), vehicle: saline
[4] = dose: 100.0 mg/kg/injection, schedule: Q04DX002 (ip), vehicle: Klucel (hydroxypropylcellulose) (HPC)
[5] = dose: 200.0 mg/kg/injection, schedule: Q04DX002 (ip), vehicle: Klucel (hydroxypropylcellulose) (HPC)
[6] = dose: 400.0 mg/kg/injection, schedule: Q04DX002 (ip), vehicle: Klucel (hydroxypropylcellulose) (HPC)
[7] = dose: 100.0 mg/kg/injection, schedule: Q04DX003 (ip), vehicle: Klucel (hydroxypropylcellulose) (HPC)
[8] = dose: 200.0 mg/kg/injection, schedule: Q04DX003 (ip), vehicle: Klucel (hydroxypropylcellulose) (HPC)
[9] = dose: 400.0 mg/kg/injection, schedule: Q04DX003 (ip), vehicle: Klucel (hydroxypropylcellulose) (HPC)
[10] = dose: 100.0 mg/kg/injection, schedule: Q01DX001 (ip), vehicle: carboxymethylcellulose (CMC)
[11] = dose: 200.0 mg/kg/injection, schedule: Q01DX001 (ip), vehicle: carboxymethylcellulose (CMC)
[12] = dose: 100.0 mg/kg/injection, schedule: Q01DX009 (ip), vehicle: saline with Tween-80
[13] = dose: 200.0 mg/kg/injection, schedule: Q01DX009 (ip), vehicle: saline with Tween-80
[14] = dose: 75.0 mg/kg/injection, schedule: Q01DX001 (ip), vehicle: saline
[15] = dose: 100.0 mg/kg/injection, schedule: Q04DX003 (ip), vehicle: saline

Measured: T/C

c1ccc(CCSCCCSCCc2ccccn2)nc1
inactive: dose: 50.0 mg/kg/injection, schedule: Q04DX002 (ip), vehicle: saline 98 % of control | dose: 100.0 mg/kg/injection, schedule: Q04DX002 (ip), vehicle: saline 98 % of control | dose: 200.0 mg/kg/injection, schedule: Q04DX002 (ip), vehicle: saline 92 % of control | dose: 400.0 mg/kg/injection, schedule: Q04DX002 (ip), vehicle: saline 95 % of control

O=C1NNCc2c1sc1ccccc21
inactive: [1] 98 % of control | [2] 98 % of control | [3] 102 % of control

NCc1cccc(OCCOc2ccccc2)c1
inactive: dose: 100.0 mg/kg/injection, schedule: Q01DX001 (ip), vehicle: saline with Tween-80 102 % of control | dose: 200.0 mg/kg/injection, schedule: Q01DX001 (ip), vehicle: saline with Tween-80 97 % of control | dose: 400.0 mg/kg/injection, schedule: Q01DX001 (ip), vehicle: saline with Tween-80 103 % of control

ClC12c3ccccc3C(c3ccccc31)C1(Cl)c3ccccc3C2c2ccccc21
inactive: [4] 102 % of control | [5] 109 % of control | [6] 106 % of control

CCC1C(=O)C=C(C)OC1=O (centres undefined)
inactive: dose: 75.0 mg/kg/injection, schedule: Q01DX009 (ip), vehicle: Klucel (hydroxypropylcellulose) (HPC) 107 % of control | dose: 150.0 mg/kg/injection, schedule: Q01DX009 (ip), vehicle: Klucel (hydroxypropylcellulose) (HPC) 101 % of control | dose: 300.0 mg/kg/injection, schedule: Q01DX009 (ip), vehicle: Klucel (hydroxypropylcellulose) (HPC) 86 % of control

Cc1ncc(C(N)=O)c(C)n1
inactive: [1] 95 % of control | [2] 101 % of control | [3] 101 % of control

O=C1NC(c2ccc3ccccc3c2)Nc2ccccc21 (centres undefined)
inactive: [7] 103 % of control | [8] 107 % of control | [9] 105 % of control

CC(=O)Nc1ccc2c(c1)C(=O)NC2=O
inactive: dose: 100.0 mg/kg/injection, schedule: Q01DX001 (ip), vehicle: Klucel (hydroxypropylcellulose) (HPC) 93 % of control | dose: 200.0 mg/kg/injection, schedule: Q01DX001 (ip), vehicle: Klucel (hydroxypropylcellulose) (HPC) 90 % of control | dose: 400.0 mg/kg/injection, schedule: Q01DX001 (ip), vehicle: Klucel (hydroxypropylcellulose) (HPC) 90 % of control

COc1c2c(c3c(c1O)c(=O)c1ccccc1n3C)OCO2
inactive: dose: 50.0 mg/kg/injection, schedule: Q01DX001 (ip), vehicle: carboxymethylcellulose (CMC) 104 % of control | [10] 90 % of control | [11] 90 % of control

O=Cc1c[nH]c2ccccc12
inactive: [1] 104 % of control | dose: 100.0 mg/kg/injection, schedule: Q01DX009 (ip), vehicle: Klucel (hydroxypropylcellulose) (HPC) 103 % of control | [7] 110 % of control | [2] 98 % of control | dose: 200.0 mg/kg/injection, schedule: Q01DX009 (ip), vehicle: Klucel (hydroxypropylcellulose) (HPC) 102 % of control | [8] 105 % of control | [3] 97 % of control | dose: 400.0 mg/kg/injection, schedule: Q01DX009 (ip), vehicle: Klucel (hydroxypropylcellulose) (HPC) 107 % of control | [9] 98 % of control

COC(=O)C(CSCSC)NC(=O)/C=C/c1ccccc1Cl (centres undefined)
inactive: dose: 50.0 mg/kg/injection, schedule: Q01DX009 (ip), vehicle: saline with Tween-80 97 % of control and 86 % of control | [12] 92 % of control | dose: 100.0 mg/kg/injection, schedule: Q04DX003 (ip), vehicle: saline with Tween-80 94 % of control | [13] 93 % of control and 92 % of control | dose: 200.0 mg/kg/injection, schedule: Q04DX003 (ip), vehicle: saline with Tween-80 91 % of control | dose: 400.0 mg/kg/injection, schedule: Q04DX003 (ip), vehicle: saline with Tween-80 87 % of control

[Co+2].[NH-]c1ccccc1C(=O)O.[NH-]c1ccccc1C(=O)O
inactive: [12] 94 % of control | [13] 93 % of control | dose: 400.0 mg/kg/injection, schedule: Q01DX009 (ip), vehicle: saline with Tween-80 86 % of control

CC/C=C/C1(C(C)C)C(=O)NC(=O)NC1=O
inactive: [14] 103 % of control | dose: 150.0 mg/kg/injection, schedule: Q01DX001 (ip), vehicle: saline 105 % of control

COc1ccc(CCNC(=O)C2CCN(CCc3ccc(OC)c(OC)c3)CC2)cc1OC
inactive: [10] 102 % of control | [11] 96 % of control | dose: 400.0 mg/kg/injection, schedule: Q01DX001 (ip), vehicle: carboxymethylcellulose (CMC) 89 % of control

CN=C(N)c1ccc(S(=O)(=O)N=C(N)N)cc1
inactive: [1] 96 % of control | [2] 98 % of control | [3] 100 % of control

Cc1nc(Cl)c2cnccn12
inactive: dose: 12.5 mg/kg/injection, schedule: Q01DX009 (ip), vehicle: saline 101 % of control | dose: 25.0 mg/kg/injection, schedule: Q01DX009 (ip), vehicle: saline 105 % of control | dose: 50.0 mg/kg/injection, schedule: Q01DX009 (ip), vehicle: saline 103 % of control | [15] 88 % of control

Cc1cccc(Cl)c1NC(=O)C(Cl)Cl
inactive: [4] 113 % of control | [5] 107 % of control | [6] 110 % of control

CCN1CCC2CN(C(=N)N)CCN2C1=O (centres undefined)
inactive: [15] 101 % of control | dose: 200.0 mg/kg/injection, schedule: Q04DX003 (ip), vehicle: saline 103 % of control | dose: 400.0 mg/kg/injection, schedule: Q04DX003 (ip), vehicle: saline 116 % of control

C[N+]1(CC2CO2)CCCCCC1 (centres undefined)
inactive: [14] 95 % of control

CC1(C)CCCC/C1=N\NC(N)=O
inactive: dose: 37.5 mg/kg/injection, schedule: Q01DX009 (ip), vehicle: saline with Tween-80 98 % of control | dose: 75.0 mg/kg/injection, schedule: Q01DX001 (ip), vehicle: other 102 % of control | dose: 75.0 mg/kg/injection, schedule: Q01DX009 (ip), vehicle: saline with Tween-80 96 % of control | dose: 75.0 mg/kg/injection, schedule: Q04DX003 (ip), vehicle: saline sonified 98 % of control | dose: 150.0 mg/kg/injection, schedule: Q01DX001 (ip), vehicle: other 102 % of control | dose: 150.0 mg/kg/injection, schedule: Q01DX009 (ip), vehicle: saline with Tween-80 94 % of control | dose: 150.0 mg/kg/injection, schedule: Q04DX003 (ip), vehicle: saline sonified 87 % of control | dose: 300.0 mg/kg/injection, schedule: Q01DX001 (ip), vehicle: other 102 % of control

NCCc1cc2c3c(c1)CCCN3CCC2
inactive: dose: 0.78 mg/kg/injection, schedule: Q01DX009 (ip), vehicle: saline 95 % of control | dose: 1.56 mg/kg/injection, schedule: Q01DX009 (ip), vehicle: saline 102 % of control | dose: 3.12 mg/kg/injection, schedule: Q01DX009 (ip), vehicle: saline 91 % of control | dose: 6.25 mg/kg/injection, schedule: Q01DX009 (ip), vehicle: saline 97 % of control | dose: 12.5 mg/kg/injection, schedule: Q01DX001 (ip), vehicle: saline 100 % of control | dose: 25.0 mg/kg/injection, schedule: Q01DX001 (ip), vehicle: saline 94 % of control
